# In patent US20210251953A1, “COMPOSITIONS FOR TREATING AND/OR […]-A[…]” (U[…] DE OLAVIDE, priority 2018, published 2021):
# Read-outs that look alike come from different tables or passages of the source.
# Key:
# [1] = tested on: GMC101 strain of C. elegans; test: Temperature-dependent paralysis assay in C. elegans Alzheimer's disease model; assay type: in vivo; settings: for number of paralyzed worms: 1 μg/ml, counted after 18-hour incubation at 25° C.
# Description: Paralysis assay: Worms were grown at a non-restrictive temperature of 16° C. until they reached the L4-young adult stage. The temperature was then shifted to 25° C. The number of paralyzed and non-paralyzed animals were counted after an 18-hour incubation at the restrictive temperature of 25° C.
# Statistical analysis: The data were analyzed using a 2-tailed chi-square test in contingency table. Statistical analysis was performed using the GraphPad Prism software (version 7.00).
# APP-PS1 mice = test: Step-through passive avoidance test in APP-PS1 mice (chronic AD mouse model); assay type: in vivo; settings: APP-PS1 mice older than 15 months, oral STX64 during 3-4 weeks; vs vehicle and wild type mice
# Description: (§1) Mice strains and conditions: The male Swiss (CD1) and APP-PS1 (Blanchard et al., 2003. Exp Neural. 184(1):247-63) mice used in this study were purchased from an authorized provider (University of Seville, Spain) and they were habituated to standard animals housing conditions for 2-3 weeks (a 12 h light/dark cycle, temperature and humidity). Behavioral studies were performed with 8 week-old Swiss mice, and >15 month-old APP-PS1 mice in C57Black background. For histological studies, male APP-PS1 mice from 2 to >15 months of age were used. All experiments were performed in accordance with European Union guidelines (2010/63/EU) and with Spanish regulations for the use of laboratory animals in chronic experiments (RD 53/2013 on the care of experimental animals: BOE Aug. 2, 2013), and the approval of the University Pablo de Olavide animal care committees was obtained prior to performing this study.
# (§2) Mice Oral STX administration: STX64 was dissolved in drinking water at 0.005 mg/ml. Mice were exposed to STX solution during 3-4 weeks and the water intake was registered every day during the treatment. The estimated daily dose of STX64 was between 1-2 mg/Kg of body weight.
# Step-through passive avoidance (PA) test: Mice have an innate preference for dark and enclosed environments. […]
# [2] = tested on: C. elegans Alzheimer's disease model strain CL2006; test: Paralysis in C. elegans Alzheimer's disease model expressing β-amyloid in muscle cells; assay type: in vivo; settings: nematodes expressing β-amyloid in muscle cells, monitored from 1st day of adulthood
# Description: C. elegans model of Alzheimer's disease: We also tested an Alzheimer's disease model expressing β-amyloid protein in muscle cells which causes paralysis in the nematode as it ages. Nematodes were synchronized at 20° C. Paralysis was monitored from 1st day of adulthood, by observing whether there is a lack of movement after the nematode was stimulated with a platinum pick.
# [3] = tested on: wild type mice injected with β-amyloid oligomers in the hippocampus; test: Step-through passive avoidance test after intrahippocampal β-amyloid oligomers (acute AD mouse model); assay type: in vivo
# Description: as §1
# Mice local drug infusion: Mice were anesthetized with 4% chloral hydrate ([…] of body weight, i.p.) and when fully anesthetized, they were situated in a stereotactic frame. In order to injure the hippocampus, 0.5 μl of 5 μM solution of β-amyloid oligomers were injected bilaterally into the dorsal hippocampus of the mice at the following stereotactic coordinates: AP=−2.2 mm, ML=±1.5 mm, V=−1.5 mm from the Bregma. The mice were then allowed to recover for at least 15 days. […]
# α-synuclein aggregates = test: Counting of fluorescent α-synuclein aggregates in C. elegans Parkinson's disease model; assay type: in vivo; settings: NL5901 nematodes expressing α-synuclein fused to YFP; STX64 vs DMSO
# Description: Further, we tested the effect of the sul-2 deletion and the administration of STX64 on the aggregation of α-synuclein. To quantify the aggregates, animals were transferred to pads comprising 2% agarose and immobilized using 25 mM levamisole. The number of α-synuclein aggregates was determined by counting fluorescent aggregates at 40× magnification, from first bulb pharyngeal to second bulb.
# R6/1 mice = test: Open-field motor activity test in mouse model of Huntington's disease; assay type: in vivo; settings: oral STX64 0.005 mg/ml in drinking water from 1 month of age for 1 month, tested at 2 months
# Description: Mice strains and conditions: The R6/1 mice (Yi Li et al., 2005. NeuroRX. 2(3): 447-464; Mangiarini et al., 1996. Cell. 87(3):493-506) used in this study were purchased from an authorized provider and they were habituated to standard animals housing conditions for 2-3 weeks (a 12 h light/dark cycle, temperature and humidity). Motor activity studies were performed with 2-month-old R6/1 mice. All experiments were performed in accordance with European Union guidelines (2010/63/EU) and with Spanish regulations for the use of laboratory animals in chronic experiments (RD 53/2013 on the care of experimental animals: BOE Aug. 2, 2013), and the approval of the University Pablo de Olavide animal care committees was obtained prior to performing this study.
# Mice Oral STX administration: STX64 was dissolved in drinking water at 0.005 mg/ml. 1-month-old mice were exposed to STX solution for 1 month and the water intake was registered every day during the treatment. The estimated daily dose of STX64 was between 1-2 mg/Kg of body weight.
# Motor activity test: Locomotor activity was tested in a non-stressful open-field (56×40×40 cm) for 15 minutes. The distance traveled by the mice was estimated with Smart video-tracking software (Panlab).
# [4] = tested on: wild type worms and sul-2 deletion mutants; settings: cited from earlier work
# [5] = tested on: C. elegans Parkinson's disease model strain NL5901; test: Mobility (pitches per minute) in C. elegans Parkinson's disease model; assay type: in vivo; settings: STX64 1 μg/ml in DMSO; nematodes overexpressing human α-synuclein in muscle cells, monitored every two days; vs DMSO
# Description: C. elegans models of Parkinson's disease: We tested if sul-2 mutations or STX64 (Sigma cat. No. 51950) treatment at 1 μg/ml concentration dissolved in DMSO improved the symptoms caused by the overexpression of human α-synuclein in muscle cells (see the following references for information on the model used: van Ham et al., 2008. PLoS Genet. 4(3):e1000027; Gidalevitz et al., 2009. PLoS Genet. 5(3):e1000399; van Ham et al., 2010. Cell. 142(4):601-12). In particular, nematodes were synchronized at 20° C. and monitored every two days. On each day of monitoring, a nematode was placed in a drop of M9 buffer, allowing 30 seconds accommodation and later counting number of pitches in one minute, assuming that a pitch occurs when the head of the nematode crosses the axial axis. N=20 for each day assayed and condition (this protocol was adapted from Van Ham et al., 2010. Cell. 142: 601-612).
# β-amyloid = β-amyloid immunohistochemistry and histological analysis in APP-PS1 mice; assay type: in vivo
# Description: as §1, §2
# Immunohistochemistry and histological analysis: For immunohistochemistry, an antibody against β-amyloid (1:3000, Sigma-Aldrich) was used. Antibody staining was visualized with H2O2 and diaminobenzidine, and enhanced with nickel. To minimize variability, at least 5 sections per mice were analyzed under a bright-field DMRB RFY HC microscope (Leica). In each section, the percentage area occupied by β-amyloid, the density and the average size of β-amyloid accumulations were quantified using Image-J software (downloaded as a free software package from the public domain: http://rsb.info.nih.gov/ij/download.html).
# [6] = tested on: 35 polyglutamine (polyQ) repeats fused to YFP, strain AM140; test: Counting of polyQ aggregates in C. elegans Huntington's disease model; assay type: in vivo; settings: STX64 1 μg/ml in DMSO; counted at day 5 of adulthood
# Description: To quantify the aggregates, animals were transferred to pads comprising 2% agarose and immobilized using 25 mM levamisole. The number of polyQ aggregates was determined by counting fluorescent aggregates at 10× magnification, from first bulb pharyngeal to second bulb.
Structure (SMILES),number of paralyzed worms [1],cognitive deficiencies (passive avoidance test) (APP-PS1 mice),paralysis with age [2],"cognitive deficiencies (escape latency, passive avoidance test) ([3]; local (intrahippocampal) STX64, 0.5 μl of 1 mg/ml, 20 minutes before β-amyloid oligomers)","cognitive deficiencies (escape latency, passive avoidance test) ([3]; systemic (oral) STX64, 0.005 mg/ml in drinking water)","effect on paralysis, comparison of sul-2 absence, STX64 and EMATE ([1]; GMC101 strain)",number of bigger α-synuclein aggregates (≥3 μm) (α-synuclein aggregates),number of smaller α-synuclein aggregates (<1 μm) (α-synuclein aggregates),"motor activity (distance traveled in open-field, 15 minutes) (R6/1 mice)",longevity ([4]; sul-2 deletion mutants),longevity ([4]; wild type worms),mobility (number of pitches in one minute) [5],"β-amyloid immunoreactive area (β-amyloid; >15-month-old APP-PS1 mice, 3-4 weeks oral STX64 (0.005 mg/ml in drink water), frontal cortex and hippocampus, vs vehicle)","β-amyloid plaque density (β-amyloid; >15-month-old APP-PS1 mice, 3-4 weeks oral STX64, frontal cortex and hippocampus, vs vehicle)","average β-amyloid plaque size (β-amyloid; >15-month-old APP-PS1 mice, 3-4 weeks oral STX64, frontal cortex, vs vehicle)","average β-amyloid plaque size (β-amyloid; >15-month-old APP-PS1 mice, 3-4 weeks oral STX64, hippocampus, vs vehicle)","β-amyloid deposition compared with the time-course in untreated APP-PS1 mice (β-amyloid; >15 month-old APP-PS1 mice, 3-4 weeks oral STX64, frontal cortex and hippocampus)",total number of polyQ aggregates [6]
"C[C@]12CC[C@@H]3c4ccc(OS(N)(=O)=O)cc4CC[C@H]3[C@@H]1CCC2=O [EMATE, estrone sulfamate]",reduced the number of paralyzed worms,,,,,,,,,,,,,,,,,
NS(=O)(=O)Oc1ccc2c3c(c(=O)oc2c1)CCCCC3 [STX64],reduced the number of paralyzed worms,completely reverted cognitive deficiencies,delayed paralysis,reverted cognitive deficiencies,reverted cognitive deficiencies,appeared to have the greatest effect,increasing the number of bigger aggregates,decreased the number of smaller aggregates,decrease in motor activity can be avoided,did not further increase the longevity,the same longevity effects as in the sul-2 mutants,significantly improved mobility,significant reduction,significant reduction,significant reduction,"a significant reduction, except for plaque size in hippocampus",reduced β-amyloid deposition in APP-PS1 mice older than 15 months to that observed in APP-PS1 mice of 10-12 months of age,reduced the total number of aggregates
